What was measured:
Type in all cases: biochemical
[1] = biological target: PLK3 (Homo sapiens, UniProt Q9H4B4); experiment: PLK TR-FRET peptide assay, PLK3; details: GST-PLK3, 15 min reaction, read-out: Plk3 IC50
[2] = biological target: PLK2 (Homo sapiens, UniProt Q9NYY3); experiment: PLK TR-FRET peptide assay, PLK2; details: PLK TR-FRET peptide assay, GST-PLK2, 60 min reaction; read-out: Plk2 IC50
[3] = biological target: PLK1 (Homo sapiens, UniProt P53350); experiment: PLK TR-FRET peptide assay, PLK1; details: GST-PLK1, 60 min reaction
Chain of PLK1 (P53350 whole entry): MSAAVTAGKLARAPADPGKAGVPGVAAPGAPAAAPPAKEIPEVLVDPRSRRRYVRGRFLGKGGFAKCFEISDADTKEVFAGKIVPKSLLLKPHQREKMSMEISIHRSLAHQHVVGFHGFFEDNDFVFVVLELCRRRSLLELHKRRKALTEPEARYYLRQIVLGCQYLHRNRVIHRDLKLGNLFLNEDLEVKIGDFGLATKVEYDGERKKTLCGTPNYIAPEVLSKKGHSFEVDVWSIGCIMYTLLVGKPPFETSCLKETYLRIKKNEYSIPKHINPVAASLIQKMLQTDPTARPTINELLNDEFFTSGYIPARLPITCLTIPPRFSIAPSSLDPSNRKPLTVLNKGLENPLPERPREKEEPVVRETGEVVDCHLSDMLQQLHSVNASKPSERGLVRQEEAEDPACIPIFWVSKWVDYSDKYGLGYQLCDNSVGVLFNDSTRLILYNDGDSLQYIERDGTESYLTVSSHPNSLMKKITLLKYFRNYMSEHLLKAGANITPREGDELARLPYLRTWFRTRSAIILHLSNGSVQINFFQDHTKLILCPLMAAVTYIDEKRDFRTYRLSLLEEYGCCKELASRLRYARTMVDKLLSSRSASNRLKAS

Chain of PLK2 (Q9NYY3 whole entry): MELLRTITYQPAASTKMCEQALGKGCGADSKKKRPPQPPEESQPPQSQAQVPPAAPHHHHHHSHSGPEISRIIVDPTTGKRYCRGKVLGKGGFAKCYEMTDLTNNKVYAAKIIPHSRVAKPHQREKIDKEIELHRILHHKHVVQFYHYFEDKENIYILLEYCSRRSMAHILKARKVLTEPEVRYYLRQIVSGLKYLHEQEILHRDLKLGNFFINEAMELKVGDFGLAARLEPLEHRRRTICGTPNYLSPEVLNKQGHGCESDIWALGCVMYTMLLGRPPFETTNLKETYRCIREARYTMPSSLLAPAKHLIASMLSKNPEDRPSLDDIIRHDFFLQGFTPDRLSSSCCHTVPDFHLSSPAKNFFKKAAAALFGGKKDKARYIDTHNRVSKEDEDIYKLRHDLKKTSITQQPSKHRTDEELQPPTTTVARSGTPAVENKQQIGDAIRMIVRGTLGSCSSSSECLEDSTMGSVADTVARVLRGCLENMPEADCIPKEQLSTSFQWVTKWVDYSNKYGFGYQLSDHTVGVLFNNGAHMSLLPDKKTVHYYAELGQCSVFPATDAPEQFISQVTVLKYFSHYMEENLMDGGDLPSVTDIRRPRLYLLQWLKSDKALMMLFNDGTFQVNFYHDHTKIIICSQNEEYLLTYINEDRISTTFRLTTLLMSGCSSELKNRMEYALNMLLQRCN
Chain of PLK3 (Q9H4B4 whole entry): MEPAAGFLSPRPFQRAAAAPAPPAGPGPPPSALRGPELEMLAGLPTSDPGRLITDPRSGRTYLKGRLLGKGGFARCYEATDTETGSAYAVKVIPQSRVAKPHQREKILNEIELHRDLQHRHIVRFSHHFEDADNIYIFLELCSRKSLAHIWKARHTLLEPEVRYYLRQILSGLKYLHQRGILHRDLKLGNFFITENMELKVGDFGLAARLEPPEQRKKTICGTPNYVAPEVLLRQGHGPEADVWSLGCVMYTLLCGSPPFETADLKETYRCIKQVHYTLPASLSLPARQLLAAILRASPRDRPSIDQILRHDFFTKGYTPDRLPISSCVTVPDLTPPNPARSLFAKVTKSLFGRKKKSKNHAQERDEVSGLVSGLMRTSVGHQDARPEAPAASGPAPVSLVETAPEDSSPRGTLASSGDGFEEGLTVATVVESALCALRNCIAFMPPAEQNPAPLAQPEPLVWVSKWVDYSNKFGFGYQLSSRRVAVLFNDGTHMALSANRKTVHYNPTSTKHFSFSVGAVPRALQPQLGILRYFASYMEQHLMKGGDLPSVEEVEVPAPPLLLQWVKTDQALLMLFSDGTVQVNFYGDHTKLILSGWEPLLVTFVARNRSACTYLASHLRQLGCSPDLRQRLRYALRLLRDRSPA

SMILES	IC50 [1] [µM]	IC50 [2] [µM]	IC50 [3] [µM]
CC[C@@]12CCC(=O)N1c1nc(-n3ccnc3)ncc1N(C)C2=O [Example 311, (S)-6a-ethyl-2-(1H-imidazol-1-yl)-5-methyl-7,8-dihydropyrrolo[2,1-h]pteridine-6,9(5H,6aH)-dione]	> 50	> 50	> 50
CC[C@@H]1C(=O)N(C)c2cnc(-c3cn[nH]c3-c3ccc(F)cc3F)nc2N1C(C)C [Example 312, (R)-2-(5-(2,4-difluorophenyl)-1H-pyrazol-4-yl)-7-ethyl-8-isopropyl-5-methyl-7,8-dihydropteridin-6(5H)-one]	< 1	< 1	< 1
CC[C@@H]1C(=O)N(C)c2cnc(-c3cn[nH]c3-c3ccccn3)nc2N1C(C)C [Example 313, (R)-7-ethyl-8-isopropyl-5-methyl-2-(5-(pyridin-2-yl)-1H-pyrazol-4-yl)-7,8-dihydropteridin-6(5H)-one]	1 to 10	< 1	1 to 10
CC[C@@]12CCCN1c1nc(-c3nccnc3-c3ccccc3)ncc1N(C)C2=O [Example 316, (S)-6a-ethyl-5-methyl-2-(3-phenylpyrazin-2-yl)-6a,7,8,9-tetrahydropyrrolo[2,1-h]pteridin-6(5H)-one]	1 to 10	1 to 10	10 to 50
CC[C@@H]1C(=O)N(C)c2cnc(-c3cn[nH]c3-c3cscn3)nc2N1C(C)C [Example 320, (R)-7-ethyl-8-isopropyl-5-methyl-2-(5-(thiazol-4-yl)-1H-pyrazol-4-yl)-7,8-dihydropteridin-6(5H)-one]	1 to 10	< 1	1 to 10
CC[C@@H]1C(=O)N(C)c2cnc(-n3ccnc3-c3ccc(F)cc3)nc2N1CC1CC1 [Example 322, (R)-8-(cyclopropylmethyl)-7-ethyl-2-(2-(4-fluorophenyl)-1H-imidazol-1-yl)-5-methyl-7,8-dihydropteridin-6(5H)-one]	1 to 10	< 1	1 to 10
CC[C@@H]1CC[C@@]2(CC)C(=O)N(C)c3cnc(-n4ccnc4C)nc3N12 [Example 325, (6aS,9R)-6a,9-diethyl-5-methyl-2-(2-methyl-1H-imidazol-1-yl)-6a,7,8,9-tetrahydropyrrolo[2,1-h]pteridin-6(5H)-one]	10 to 50	1 to 10	10 to 50
CN1C(=O)C2(CC(F)(F)F)CCCN2c2nc(-n3ccnc3)ncc21 (stereo not drawn) [Example 329, 2-(1H-imidazol-1-yl)-5-methyl-6a-(2,2,2-trifluoroethyl)-6a,7,8,9-tetrahydropyrrolo[2,1-h]pteridin-6(5H)-one]	10 to 50	10 to 50	10 to 50
CC[C@@H]1C(=O)N(C)c2cnc(-c3nccs3)nc2N1C1CCCC1 [Example 330, (R)-8-cyclopentyl-7-ethyl-5-methyl-2-(thiazol-2-yl)-7,8-dihydropteridin-6(5H)-one]	10 to 50	< 1	1 to 10
CCC1C(=O)N(C)c2cnc(-n3ccnc3)nc2N1c1cccc(-c2cncnc2)c1 (stereo not drawn) [Example 333, 7-ethyl-2-(1H-imidazol-1-yl)-5-methyl-8-(3-(pyrimidin-5-yl)phenyl)-7,8-dihydropteridin-6(5H)-one]	> 50	10 to 50	10 to 50
CC[C@@H]1CC[C@@]2(CC)C(=O)N(C)c3cnc(-n4ccnc4)nc3N12 [Example 334, (6aS,9R)-6a,9-diethyl-2-(1H-imidazol-1-yl)-5-methyl-6a,7,8,9-tetrahydropyrrolo[2,1-h]pteridin-6(5H)-one]	10 to 50	1 to 10	1 to 10
CC[C@@H]1C(=O)N(C)c2cnc(-n3ccnc3-c3ccccc3)nc2N1C1COC1 [Example 335, (R)-7-ethyl-5-methyl-8-(oxetan-3-yl)-2-(2-phenyl-1H-imidazol-1-yl)-7,8-dihydropteridin-6(5H)-one]	10 to 50	< 1	1 to 10
CCC1C(=O)N(C)c2cnc(-n3ccnc3)nc2N1c1cccc(-n2cccn2)c1 (stereo not drawn) [Example 336, 8-(3-(1H-pyrazol-1-yl)phenyl)-7-ethyl-2-(1H-imidazol-1-yl)-5-methyl-7,8-dihydropteridin-6(5H)-one]	> 50	10 to 50	10 to 50
CC[C@@H]1C(=O)N(C)c2cnc(-c3sc(N)nc3-c3ccn[nH]3)nc2N1C(C)C [Example 337, (R)-2-(2-amino-4-(1H-pyrazol-5-yl)thiazol-5-yl)-7-ethyl-8-isopropyl-5-methyl-7,8-dihydropteridin-6(5H)-one]	1 to 10	< 1	1 to 10
CC[C@@]12CCCN1c1nc(-c3cn[nH]c3-c3nccs3)ncc1N(C)C2=O [Example 338, (S)-6a-ethyl-5-methyl-2-(5-(thiazol-2-yl)-1H-pyrazol-4-yl)-6a,7,8,9-tetrahydropyrrolo[2,1-h]pteridin-6(5H)-one]	> 50	10 to 50	> 50
CN1C(=O)C2(CC(F)(F)F)CCCN2c2nc(-n3ccnc3-c3ccccc3)ncc21 (stereo not drawn) [Example 339, 5-methyl-2-(2-phenyl-1H-imidazol-1-yl)-6a-(2,2,2-trifluoroethyl)-6a,7,8,9-tetrahydropyrrolo[2,1-h]pteridin-6(5H)-one]	10 to 50	< 1	10 to 50
CC[C@@H]1CC[C@@]2(CC)C(=O)N(C)c3cnc(-c4cn[nH]c4-c4nccs4)nc3N12 [Example 340, (6aS,9R)-6a,9-diethyl-5-methyl-2-(5-(thiazol-2-yl)-1H-pyrazol-4-yl)-6a,7,8,9-tetrahydropyrrolo[2,1-h]pteridin-6(5H)-one]	1 to 10	< 1	< 1
CC[C@@H]1C(=O)N(C)c2cnc(-n3ccnc3-c3ccc(F)c(F)c3)nc2N1C1COC1 [Example 341, (R)-2-(2-(3,4-difluorophenyl)-1H-imidazol-1-yl)-7-ethyl-5-methyl-8-(oxetan-3-yl)-7,8-dihydropteridin-6(5H)-one]	> 50	1 to 10	> 50
CCC1C(=O)N(C)c2cnc(-n3ccnc3-c3ccc(F)cc3)nc2N1c1cccc(-c2cncnc2)c1 (stereo not drawn) [Example 346, 7-ethyl-2-(2-(4-fluorophenyl)-1H-imidazol-1-yl)-5-methyl-8-(3-(pyrimidin-5-yl)phenyl)-7,8-dihydropteridin-6(5H)-one]	1 to 10	< 1	1 to 10
CC[C@@H]1C(=O)N(C)c2cnc(-c3sc(Br)nc3-c3ccc(F)cc3)nc2N1C(C)C [Example 347, (R)-2-(2-bromo-4-(4-fluorophenyl)thiazol-5-yl)-7-ethyl-8-isopropyl-5-methyl-7,8-dihydropteridin-6(5H)-one]	> 50	< 1	> 50
CC[C@@H]1C(=O)N(C)c2cnc(-c3scnc3-c3ccn[nH]3)nc2N1C(C)C [Example 348, (R)-2-(4-(1H-pyrazol-5-yl)thiazol-5-yl)-7-ethyl-8-isopropyl-5-methyl-7,8-dihydropteridin-6(5H)-one]	1 to 10	< 1	1 to 10
CC[C@@H]1C(=O)N(C)c2cnc(-n3ccnc3-c3ccccc3)nc2N1C(C)C1CC1 (stereo partly drawn) [Example 350, (7R)-8-(1-cyclopropylethyl)-7-ethyl-5-methyl-2-(2-phenyl-1H-imidazol-1-yl)-7,8-dihydropteridin-6(5H)-one]	< 1	< 1	< 1
CC[C@@H]1C(=O)N(C)c2cnc(-n3ccnc3-c3ccc(F)cc3)nc2N1C(C)C1CC1 (stereo partly drawn) [Example 351, (7R)-8-(1-cyclopropylethyl)-7-ethyl-2-(2-(4-fluorophenyl)-1H-imidazol-1-yl)-5-methyl-7,8-dihydropteridin-6(5H)-one]	1 to 10	< 1	1 to 10
CC[C@@H]1C(=O)N(C)c2cnc(-n3ccnc3C(F)(F)F)nc2N1C1CCCC1 [Example 352, (R)-8-cyclopentyl-7-ethyl-5-methyl-2-(2-(trifluoromethyl)-1H-imidazol-1-yl)-7,8-dihydropteridin-6(5H)-one]	1 to 10	< 1	1 to 10
CC[C@@H]1C(=O)N(C)c2cnc(-c3cn[nH]c3-c3nccs3)nc2N1C1CC(F)(F)C1 [Example 353, (R)-8-(3,3-difluorocyclobutyl)-7-ethyl-5-methyl-2-(5-(thiazol-2-yl)-1H-pyrazol-4-yl)-7,8-dihydropteridin-6(5H)-one]	1 to 10	< 1	1 to 10
CC[C@@H]1C(=O)N(C)c2cnc(-c3sc(C#N)nc3-c3ccc(F)cc3)nc2N1C(C)C [Example 354, (R)-5-(7-ethyl-8-isopropyl-5-methyl-6-oxo-5,6,7,8-tetrahydropteridin-2-yl)-4-(4-fluorophenyl)thiazole-2-carbonitrile]	< 1	< 1	1 to 10
CC[C@@H]1C(=O)N(C)c2cnc(-c3cncs3)nc2N1C1CCCC1 [Example 355, (R)-8-cyclopentyl-7-ethyl-5-methyl-2-(thiazol-5-yl)-7,8-dihydropteridin-6(5H)-one]	1 to 10	< 1	< 1
CC[C@@H]1CC[C@@]2(CC)C(=O)N(C)c3cnc(-c4cn[nH]c4-c4cscn4)nc3N12 [Example 356, (6aS,9R)-6a,9-diethyl-5-methyl-2-(5-(thiazol-4-yl)-1H-pyrazol-4-yl)-6a,7,8,9-tetrahydropyrrolo[2,1-h]pteridin-6(5H)-one]	1 to 10	< 1	1 to 10
CC[C@@H]1C(=O)N(C)c2cnc(-c3cn[nH]c3-c3nccs3)nc2N1C(C)C1CC1 (stereo partly drawn) [Example 357, (7R)-8-(1-cyclopropylethyl)-7-ethyl-5-methyl-2-(5-(thiazol-2-yl)-1H-pyrazol-4-yl)-7,8-dihydropteridin-6(5H)-one]	1 to 10	< 1	< 1

Reference: US8541418B2, “Inhibitors of polo-like kinase” (Elan Pharmaceutical, Inc., priority 2009, dated 2013)
